From patent US20170190671A1, “BIS(ARYL)CATECHOL DERIVATIVES AS HERBICIDES” (E I DU PONT DE NEMOURS AND COMPANY, priority 2014, published 2017)

Columns and labels:
Settings in all cases: scale 0 to 100
[1] = test system: winter wheat (Triticum aestivum); assay: Test D preemergence; assay type: in vivo
From the text: (§1) Seeds of plant species selected from bluegrass (annual bluegrass, Poa annua), blackgrass (Alopecurus myosuroides), canarygrass (Phalaris minor), chickweed (common chickweed, Stellaria media), cutleaf geranium (Geranium dissectum), galium (catchweed bedstraw, Galium aparine), downy bromegrass (Bromus tectorum), field poppy (Papaver rhoeas), field violet (Viola arvensis), green foxtail (Setaria viridis), deadnettle (henbit deadnettle, Lamium amplexicaule), Italian ryegrass (Lolium multiflorum), kochia (Kochia scoparia), lambsquarters (Chenopodium album), oilseed rape (Brassica napus), pigweed (Amaranthus retroflexus), chamomile (scentless chamomile, Matricaria inodora), Russian thistle (Salsola kali), speedwell (bird's-eye speedwell, Veronica persica), spring barley (Hordeum vulgare), spring wheat (Triticum aestivum), wild buckwheat (Polygonum convolvulus), wild mustard (Sinapis arvensis), wild oat (Avenafatua), wild radish (Raphanus raphanistrum), windgrass (Apera spica-venti), winter barley (Hordeum vulgare), and winter wheat (Triticum aestivum) were planted into a silt loam soil and treated preemergence with test chemicals formulated in a non-phytotoxic solvent mixture which included a surfactant.
(§2) At the same time, these species were planted in pots containing Redi-Earth® planting medium (Scotts Company, 14111 Scottslawn Road, Marysville, Ohio 43041) comprising spaghnum peat moss, vermiculite, wetting agent and starter nutrients and treated with postemergence applications of the test chemicals formulated in the same manner. Plants ranged in height from 2 to 18 cm (1- to 4-leaf stage). Treated plants and controls were maintained in a controlled growth environment for 14 to 21 days after which time all species were compared to controls and visually evaluated. Plant response ratings, summarized in Table D, are based on a scale of 0 to 100 where 0 is no effect and 100 is complete control. A dash (-) response means no test result.

[2] = test system: spring barley (Hordeum vulgare); assay: Test D preemergence; assay type: in vivo
From the text: as §1, §2

[3] = test system: oilseed rape (Brassica napus); assay: Test D preemergence; assay type: in vivo
From the text: as §1, §2

[4] = test system: galium (catchweed bedstraw, Galium aparine); assay: Test D preemergence; assay type: in vivo
From the text: as §1, §2

[5] = test system: green foxtail (Setaria viridis); assay: Test D preemergence; assay type: in vivo
From the text: as §1, §2

kochia (Kochia scoparia) = assay: Test D preemergence; assay type: in vivo
From the text: as §1, §2

[6] = test system: wild radish (Raphanus raphanistrum); assay: Test D preemergence; assay type: in vivo
From the text: as §1, §2

[7] = test system: pigweed (Amaranthus retroflexus); assay: Test D preemergence; assay type: in vivo
From the text: as §1, §2

[8] = test system: lambsquarters (Chenopodium album); assay: Test D preemergence; assay type: in vivo
From the text: as §1, §2

[9] = test system: deadnettle (henbit deadnettle, Lamium amplexicaule); assay: Test D preemergence; assay type: in vivo
From the text: as §1, §2

[10] = test system: chamomile (scentless chamomile, Matricaria inodora); assay: Test D preemergence; assay type: in vivo
From the text: as §1, §2

[11] = test system: spring wheat (Triticum aestivum); assay: Test D preemergence; assay type: in vivo
From the text: as §1, §2

[12] = test system: field violet (Viola arvensis); assay: Test D preemergence; assay type: in vivo
From the text: as §1, §2

[13] = test system: windgrass (Apera spica-venti); assay: Test D preemergence; assay type: in vivo
From the text: as §1, §2

[14] = test system: field poppy (Papaver rhoeas); assay: Test D preemergence; assay type: in vivo
From the text: as §1, §2

[15] = test system: Italian ryegrass (Lolium multiflorum); assay: Test D preemergence; assay type: in vivo
From the text: as §1, §2

[16] = test system: winter barley (Hordeum vulgare); assay: Test D preemergence; assay type: in vivo
From the text: as §1, §2

wild oat (Avenafatua) = assay: Test D postemergence; assay type: in vivo, Avena fatua
From the text: as §1, §2

N#Cc1cccc(Oc2ncc(Cl)cn2)c1Oc1ncc(Cl)cn1 [Compound 3, 2,3-bis[(5-chloro-2-pyrimidinyl)oxy]benzonitrile]
20: Plant response rating, Galium ([4]; 16 g ai/ha) | Plant response rating, Chamomile ([10]; 31 g ai/ha) | Plant response rating, Wheat, Spring ([11]; 125 g ai/ha) | Plant response rating, Barley, Winter ([16]; 62 g ai/ha) | Plant response rating, Oat, Wild (wild oat (Avenafatua); 125 g ai/ha)
25: Plant response rating, Oilseed Rape ([3]; 31 g ai/ha)
30: Plant response rating, Radish, Wild ([6]; 16 g ai/ha)
35: Plant response rating, Oilseed Rape ([3]; 62 g ai/ha) | Plant response rating, Chamomile ([10]; 62 g ai/ha)
15: Plant response rating, Windgrass ([13]; 31 g ai/ha) | Plant response rating, Oat, Wild (wild oat (Avenafatua); 16 g ai/ha) | Plant response rating, Oat, Wild (wild oat (Avenafatua); 31 g ai/ha) | Plant response rating, Oat, Wild (wild oat (Avenafatua); 62 g ai/ha)
100: Plant response rating, Oilseed Rape ([3]; 125 g ai/ha) | Plant response rating, Galium ([4]; 31 g ai/ha) | Plant response rating, Galium ([4]; 62 g ai/ha) | Plant response rating, Galium ([4]; 125 g ai/ha) | Plant response rating, Foxtail, Green ([5]; 62 g ai/ha) | Plant response rating, Foxtail, Green ([5]; 125 g ai/ha) | Plant response rating, Kochia (kochia (Kochia scoparia); 16 g ai/ha) | Plant response rating, Kochia (kochia (Kochia scoparia); 31 g ai/ha) | Plant response rating, Kochia (kochia (Kochia scoparia); 62 g ai/ha) | Plant response rating, Kochia (kochia (Kochia scoparia); 125 g ai/ha) | Plant response rating, Radish, Wild ([6]; 62 g ai/ha) | Plant response rating, Radish, Wild ([6]; 125 g ai/ha) | Plant response rating, Pigweed ([7]; 16 g ai/ha) | Plant response rating, Pigweed ([7]; 31 g ai/ha) | Plant response rating, Pigweed ([7]; 62 g ai/ha) | Plant response rating, Pigweed ([7]; 125 g ai/ha) | Plant response rating, Lambsquarters ([8]; 62 g ai/ha) | Plant response rating, Lambsquarters ([8]; 125 g ai/ha) | Plant response rating, Deadnettle ([9]; 62 g ai/ha) | Plant response rating, Deadnettle ([9]; 125 g ai/ha) | Plant response rating, Field Violet ([12]; 16 g ai/ha) | Plant response rating, Field Violet ([12]; 31 g ai/ha) | Plant response rating, Field Violet ([12]; 62 g ai/ha) | Plant response rating, Field Violet ([12]; 125 g ai/ha) | Plant response rating, Field Poppy ([14]; 31 g ai/ha) | Plant response rating, Field Poppy ([14]; 62 g ai/ha) | Plant response rating, Field Poppy ([14]; 125 g ai/ha)
70: Plant response rating, Deadnettle ([9]; 16 g ai/ha) | Plant response rating, Barley, Winter ([16]; 125 g ai/ha)
85: Plant response rating, Chamomile ([10]; 125 g ai/ha)
50: Plant response rating, Windgrass ([13]; 62 g ai/ha) | Plant response rating, Ryegrass, Italian ([15]; 62 g ai/ha)
5: Plant response rating, Wheat, Winter ([1]; 62 g ai/ha)
0: Plant response rating, Wheat, Winter ([1]; 16 g ai/ha) | Plant response rating, Wheat, Winter ([1]; 31 g ai/ha) | Plant response rating, Barley, Spring ([2]; 16 g ai/ha) | Plant response rating, Barley, Spring ([2]; 31 g ai/ha) | Plant response rating, Barley, Spring ([2]; 62 g ai/ha) | Plant response rating, Wheat, Spring ([11]; 16 g ai/ha) | Plant response rating, Wheat, Spring ([11]; 31 g ai/ha) | Plant response rating, Ryegrass, Italian ([15]; 16 g ai/ha) | Plant response rating, Ryegrass, Italian ([15]; 31 g ai/ha) | Plant response rating, Barley, Winter ([16]; 16 g ai/ha) | Plant response rating, Barley, Winter ([16]; 31 g ai/ha)
10: Plant response rating, Wheat, Winter ([1]; 125 g ai/ha) | Plant response rating, Oilseed Rape ([3]; 16 g ai/ha) | Plant response rating, Foxtail, Green ([5]; 16 g ai/ha) | Plant response rating, Lambsquarters ([8]; 16 g ai/ha) | Plant response rating, Chamomile ([10]; 16 g ai/ha) | Plant response rating, Wheat, Spring ([11]; 62 g ai/ha) | Plant response rating, Windgrass ([13]; 16 g ai/ha)
40: Plant response rating, Barley, Spring ([2]; 125 g ai/ha) | Plant response rating, Ryegrass, Italian ([15]; 125 g ai/ha)
95: Plant response rating, Lambsquarters ([8]; 31 g ai/ha) | Plant response rating, Deadnettle ([9]; 31 g ai/ha)
60: Plant response rating, Foxtail, Green ([5]; 31 g ai/ha)
90: Plant response rating, Field Poppy ([14]; 16 g ai/ha)
80: Plant response rating, Radish, Wild ([6]; 31 g ai/ha) | Plant response rating, Windgrass ([13]; 125 g ai/ha)

Fc1cccc(Oc2ncc(C(F)(F)F)cn2)c1Oc1ncc(Cl)cn1 [Compound 42, 5-chloro-2-[2-fluoro-6-[[5-(trifluoromethyl)-2-pyrimidinyl]oxy]phenoxy]pyrimidine]
50: Plant response rating, Wheat, Winter ([1]; 125 g ai/ha) | Plant response rating, Oilseed Rape ([3]; 16 g ai/ha)
35: Plant response rating, Barley, Spring ([2]; 31 g ai/ha) | Plant response rating, Kochia (kochia (Kochia scoparia); 16 g ai/ha) | Plant response rating, Ryegrass, Italian ([15]; 62 g ai/ha)
0: Plant response rating, Wheat, Winter ([1]; 16 g ai/ha) | Plant response rating, Wheat, Winter ([1]; 31 g ai/ha) | Plant response rating, Wheat, Winter ([1]; 62 g ai/ha) | Plant response rating, Barley, Spring ([2]; 16 g ai/ha) | Plant response rating, Wheat, Spring ([11]; 16 g ai/ha) | Plant response rating, Wheat, Spring ([11]; 31 g ai/ha) | Plant response rating, Ryegrass, Italian ([15]; 16 g ai/ha) | Plant response rating, Ryegrass, Italian ([15]; 31 g ai/ha) | Plant response rating, Barley, Winter ([16]; 16 g ai/ha) | Plant response rating, Barley, Winter ([16]; 31 g ai/ha)
15: Plant response rating, Barley, Spring ([2]; 62 g ai/ha) | Plant response rating, Wheat, Spring ([11]; 62 g ai/ha) | Plant response rating, Windgrass ([13]; 16 g ai/ha) | Plant response rating, Barley, Winter ([16]; 62 g ai/ha)
45: Plant response rating, Oat, Wild (wild oat (Avenafatua); 31 g ai/ha)
70: Plant response rating, Oilseed Rape ([3]; 31 g ai/ha) | Plant response rating, Galium ([4]; 31 g ai/ha) | Plant response rating, Deadnettle ([9]; 16 g ai/ha) | Plant response rating, Ryegrass, Italian ([15]; 125 g ai/ha) | Plant response rating, Oat, Wild (wild oat (Avenafatua); 125 g ai/ha)
85: Plant response rating, Radish, Wild ([6]; 62 g ai/ha) | Plant response rating, Lambsquarters ([8]; 16 g ai/ha) | Plant response rating, Deadnettle ([9]; 31 g ai/ha)
25: Plant response rating, Radish, Wild ([6]; 16 g ai/ha) | Plant response rating, Field Violet ([12]; 16 g ai/ha) | Plant response rating, Oat, Wild (wild oat (Avenafatua); 16 g ai/ha)
40: Plant response rating, Oat, Wild (wild oat (Avenafatua); 62 g ai/ha)
60: Plant response rating, Foxtail, Green ([5]; 31 g ai/ha) | Plant response rating, Windgrass ([13]; 31 g ai/ha)
80: Plant response rating, Barley, Winter ([16]; 125 g ai/ha)
100: Plant response rating, Oilseed Rape ([3]; 62 g ai/ha) | Plant response rating, Oilseed Rape ([3]; 125 g ai/ha) | Plant response rating, Galium ([4]; 62 g ai/ha) | Plant response rating, Galium ([4]; 125 g ai/ha) | Plant response rating, Foxtail, Green ([5]; 62 g ai/ha) | Plant response rating, Foxtail, Green ([5]; 125 g ai/ha) | Plant response rating, Kochia (kochia (Kochia scoparia); 62 g ai/ha) | Plant response rating, Kochia (kochia (Kochia scoparia); 125 g ai/ha) | Plant response rating, Radish, Wild ([6]; 125 g ai/ha) | Plant response rating, Pigweed ([7]; 16 g ai/ha) | Plant response rating, Pigweed ([7]; 31 g ai/ha) | Plant response rating, Pigweed ([7]; 62 g ai/ha) | Plant response rating, Pigweed ([7]; 125 g ai/ha) | Plant response rating, Lambsquarters ([8]; 31 g ai/ha) | Plant response rating, Lambsquarters ([8]; 62 g ai/ha) | Plant response rating, Lambsquarters ([8]; 125 g ai/ha) | Plant response rating, Deadnettle ([9]; 62 g ai/ha) | Plant response rating, Deadnettle ([9]; 125 g ai/ha) | Plant response rating, Field Violet ([12]; 31 g ai/ha) | Plant response rating, Field Violet ([12]; 62 g ai/ha) | Plant response rating, Field Violet ([12]; 125 g ai/ha) | Plant response rating, Windgrass ([13]; 125 g ai/ha)
90: Plant response rating, Windgrass ([13]; 62 g ai/ha)
10: Plant response rating, Foxtail, Green ([5]; 16 g ai/ha)
65: Plant response rating, Barley, Spring ([2]; 125 g ai/ha) | Plant response rating, Galium ([4]; 16 g ai/ha) | Plant response rating, Kochia (kochia (Kochia scoparia); 31 g ai/ha) | Plant response rating, Wheat, Spring ([11]; 125 g ai/ha)
